Assay results from publication PMC9216188, “Expanding the Biological Properties of Alkannins and Shikonins: Their Impact on Adipogenesis and Life Expectancy in Nematodes” (Frontiers in Pharmacology, 2022).
“Also recorded” adds a separate entry of the source. Read-outs that look alike come from different tables or passages of the source.

Key:
[1] = system: ADIPOQ; test: RT-PCR relative mRNA expression of ADIPOQ in differentiated 3T3-L1 cells; format: cell-based, Mouse; settings: day 11
Experimental: (§1) 3T3-L1 pre-adipocytes were differentiated into mature adipocytes following the aforementioned differentiation protocol (vide infra). Briefly, pre-adipocytes were treated with either 10 ng/ml of insulin and/or hydroxynaphthoquinones (100 nM or 1 μΜ). The tested compounds were first dissolved in DMSO and subsequently in the culture medium, with the final concentration of DMSO not exceeding 0.1% v/v. The initial stock concentration was 50 mM. Cells treated with insulin were considered as positive control whereas untreated cells were included as vehicle control. On the 11th day of the differentiation process, cell differentiation was assessed and validated by oil red O staining, as described elsewhere ([Tsave et al., 2016]). Further validation of successful adipogenesis was also confirmed by the relative expression of closely related biomarkers PPAR-γ and adiponectin (ADIPOQ).
(§2) Total RNA was extracted from cells on the 11th day of the differentiation protocol, using TRItidy-G reagent. The concentration and purity (absorbance ratio 260/280) of the extracted RNA were measured with a NanoDrop™ 2000c spectrophotometer (Thermo Fisher Scientific, United States). Synthesis of cDNA was performed with the iScript cDNA synthesis kit according to manufacturer instructions. RT-PCR was run on Rotor Gene Q (Qiagen) using the iTaq Universal SYBR Green Supermix and appropriate reagents (Qiagen, United States).
(§3) Customized primers were used from Qiagen for adiponectin (Mm_Adipoq_1_SG, NM_009605, Q01048047), GAPDH (Mm Gapdh_3_SG, QT01658692) and mPPAR-γ forward 5′-GTCAGCGACTGGGACTTTTC-3′ and reverse 5′-CGAGGACATCCAAGACAACC-3’.

[2] = system: PPAR-γ; test: RT-PCR relative mRNA expression of PPAR-γ in differentiated 3T3-L1 cells; format: cell-based, Mouse; settings: day 11
Experimental: as §1, §2, §3

[3] = system: 3T3-L1 pre-adipocytes; design: method as in Lee et al., 2010; Gwon et al., 2013; Ha et al., 2016; settings: 0.5–2 μM ref Lee et al., 2010; Gwon et al., 2013; Ha et al., 2016; cited from earlier work
[4] = system: 3T3-L1 pre-adipocytes; test: Cell viability of undifferentiated 3T3-L1 cells (CellTiter-Glo); format: cell-based, Mouse; settings: for inhibition of cell viability: 4 μM; for IC50: Mus musculus, read-out: IC50 (cell viability)
Experimental: (§4) Mouse fibroblast 3T3-L1 preadipocytes were kindly donated by the Laboratory of Inorganic Chemistry, School of Chemical Engineering, Aristotle University of Thessaloniki (Thessaloniki, Greece) and cultured in 75 cm^2 cell culture flasks in high-glucose DMEM supplemented with 10% FBS, 100 units/mL penicillin and […] streptomycin at 37°C in 5% CO2 and standard humidity. Medium was changed three times per week, until cells reached confluence. Two days post-confluency (day 0), cells were induced to differentiate by treating them with a differentiation/induction medium containing DMEM supplemented with 0.5 mM IBMX, 1 μM DEX, […] of insulin, and 10% FBS. Three days later (day 3), the medium was replaced with DMEM containing 10% FBS and 1 μg/ml insulin for two more days, after which (day 5) the medium was changed to DMEM with 10% FBS. The medium was replaced every 2 days until cells were harvested on day 11 ([Tsave et al., 2018]).
(§5) Viability of undifferentiated 3T3-L1 cells upon treatment with various concentrations of the hydroxynaphthoquinones was assessed using CellTiter-Glo assay in opaque-walled 96-well plates. This method utilizes the luciferase reaction for quantifying adenosine triphosphate (ATP), which is an indicator of cellular metabolic activity. Through the luciferase reaction, luminescence is generated in proportion to the amount of available ATP. […] Briefly, cells were seeded in a 96-well plate at a density of 3.5 × 10^3 cells and a total volume of 100 μl per well. After 24 h incubation, cells were treated with different concentrations (10 nM–10 μΜ) of the hydroxynaphthoquinones for 24 and 48 h. After the respective incubation times, cells in each condition were treated with a volume of the reagent equal to the volume of cell culture medium present in each well. The luminescence was recorded with a Glomax 96 microplate luminometer (Promega Corporation, United States). Untreated cells served as control samples. Each assay was performed three times, with at least three replicates each.
(§6) All tested compounds were previously dissolved in DMSO. The final concentration of DMSO in each well was lower than 0.1%. To confirm that DMSO at that concentration was inert, a screening was performed at various concentrations (0.00002%–2%) and cell viability was assessed. Cell viability was expressed as the percentage of viability observed in each compound, compared to the untreated cells.

[5] = as above; format: cell-based, Mouse; settings: mouse; 0.01, 0.1, and 1 μM, 24 h; read-out: cell viability (% of untreated cells)
Experimental: as §4, §5, §6

[6] = system: 3T3-L1 pre-adipocytes; test: Differentiation of 3T3-L1 cells, lipid quantification by Oil Red O staining; format: cell-based, Mouse; settings: for lipid accumulation / fold decrease in lipid accumulation / lipid accumulation (formed lipids): 1 μM, ORO stain, day 11; for lipid accumulation: absence of insulin; for fold decrease in lipid accumulation / lipid accumulation (formed lipids): in the presence of insulin
Experimental: as §4, §1
3T3-L1 preadipocytes were seeded in 24-well plates at a density of 3.5 × 10^4 cells per well and differentiated as described above. On the 11th day, cells were washed three times with sterile PBS, fixed with formaldehyde 3.7%–4.0% for 20 min and stained with Oil Red O (ORO) solution for 10 min. Next, cells were washed with double distilled water (ddH2O) and stained lipids were observed and imaged under an inverted microscope, as described elsewhere ([Tsave et al., 2016]). The analysis and quantification of lipid accumulation—based on the amount of ORO dye—was performed by using ImageJ software (National Institutes of Health, United States). In brief, the RGB images with the stained lipids were converted to 8-bit grayscale (Image → Type → 8-bit). Next, a manual threshold was set (Image → Adjust → Threshold) for each sample and the stained areas were measured (Analyze → Measure) ([Mehlem et al., 2013]).

[7] = system: ADIPOQ; design: method as in Lee H.-Y. et al., 2009; settings: 2 μM ref Lee H.-Y. et al., 2009; cited from earlier work
[8] = system: PPAR-γ; design: method as in Lee et al., 2010; Gwon et al., 2013; settings: 0.5–2 μM ref Lee et al., 2010; Gwon et al., 2013; cited from earlier work
[9] = system: C. elegans; design: method as in Hunt et al., 2011; settings: 100 to 500 μM, applied to solid agar medium ref Hunt et al., 2011; cited from earlier work
[10] = system: C. elegans N2 wild-type; test: C. elegans survival assay (nematocidal activity); format: in vivo, Caenorhabditis elegans; settings: for % Survival after 10 days ±SD: N2 worms
Experimental: Caenorhabditis elegans wild-type var. Bristol N2, SS104 [glp-4 (bn2ts)] and Escherichia coli OP50 were provided by the Caenorhabditis Genetics Center (University of Minnesota, United States). Media and NGM agar plates have been prepared as described before ([Zwirchmayr et al., 2020]). OP50 were grown in LB medium for 8 h at 37°C, then harvested by centrifugation, washed twice with ddH2O and suspended in S-complete medium at 100 mg/ml. Worms were maintained on NGM agar plates inoculated with OP50. Synchronized cultures were prepared by egg-prep method ([Porta-de-la-Riva et al., 2012]) and experiments started at the […].
The survival assay was performed as described before: Briefly, a suspension of 5–18 synchronized L1 larvae (N2 wild-type) in S-complete medium were manually seeded into 96-well plates. OP50 at a concentration of 6 mg/ml was added immediately and worms were kept at 25°C. The following day, when all worms reached the L3 stage, the sterilizing-agent 5-Fluorodeoxyuridine (FUdR; 0.12 mM final; Sigma-Aldrich, F0503) was added to keep the population synchronized. The next day, samples were added in triplicate wells to the adult worm culture with DMSO as a carrier at a final concentration of 1%. The number of living worms in each well was counted on day 0, 3, 5, 7 and 10 of the treatment. The worms were oxygenized every 3 days and OP50 were added on day 5 of adulthood to prevent starvation. Results of three parallel experiments are presented as bar charts and are given as the mean survival rate of worms.

[11] = compound alone, absence of insulin

Molecule	ADIPOQ mRNA expression, fold increase [1, 11]	ADIPOQ mRNA expression, fold increase ([1]; compound together with insulin)	PPAR-γ mRNA expression, fold increase ([2]; compound together with insulin)	IC50 ([4]; 3T3-L1 cells, 24 h)	lipid accumulation [6]	lipid accumulation (formed lipids) [6]	further results
insulin: human recombinant insulin, positive control of differentiation [reference compound]	–	–	–	–	–	–	ADIPOQ mRNA expression, fold increase ([1]; positive control sample (insulin)): 8.67 fold; PPAR-γ mRNA expression, fold increase ([2]; positive control sample (insulin group)): 10.78 fold
CC(C)=CC[C@@H](OC(=O)CC(C)(C)O)C1=CC(=O)c2c(O)ccc(O)c2C1=O [β-hydroxy-isovaleryl-shikonin, reference compound]	–	–	–	–	–	–	effect on adipogenesis [3]: inhibit adipogenesis
CC(C)=CC[C@H](O)C1=CC(=O)c2c(O)ccc(O)c2C1=O [A, Alkannin]	strongest inhibition	not showing any increase at all	0.20 fold	< 3000 nM	1.56%	–	inhibition of cell viability ([4]; 24 h): more than 90%; viability [5]: > 146%; fold decrease in lipid accumulation [6]: 37 fold; inhibition of the formation of lipids ([6]; in the presence of insulin (Figure 4)): ~100%
CC(C)=CC[C@@H](O)C1=CC(=O)c2c(O)ccc(O)c2C1=O [S, Shikonin]	2.4 fold	< 1 fold	1.27 fold	< 3000 nM	2.58%	–	effect on adipogenesis [3]: inhibit adipogenesis; effect on ADIPOQ expression [7]: strongly inhibit; inhibition of cell viability ([4]; 24 h): more than 90%; viability [5]: > 146%; fold decrease in lipid accumulation [6]: 22 fold; effect on expression of PPAR-γ [8]: significantly inhibited
CC(C)=CCCC1=CC(=O)c2c(O)ccc(O)c2C1=O [DS, Deoxy-shikonin]	strongest inhibition; also recorded: complete impediment of ADIPOQ expression	4.85 fold	5.08 fold	–	1.78%	exceeded 10%	concentrations showing reduced cell viability ([4]; 24 h): > 4 µM
CC(=O)O[C@H](CC=C(C)C)C1=CC(=O)c2c(O)ccc(O)c2C1=O [ACS, Acetyl-shikonin]	–	–	–	–	–	–	concentrations showing reduced cell viability ([4]; 24 h): > 4 µM
O=C1C=CC(=O)c2c(O)ccc(O)c21 [NAPH, Naphthazarin]	1.79 fold	2.13 fold	5.2 fold	–	5.74%	exceeded 10%	effect on lifespan of C. elegans [9]: extend the lifespan; IC50 ([4]; 3T3-L1, 24 h): < 3000 nM; % Survival after 10 days ±SD ([10]; 15 μg/ml): 0.00 ± 0.00 %; worms surviving the first 3 days of treatment ([10]; 15 μg/ml, day 3): 50%; % Survival after 10 days ±SD ([10]; 60 μg/ml): 0.00 ± 0.00 %; nematodes dead at the third day of treatment ([10]; 60 μg/ml, day 3): ~100%
CC(C)=CC[C@@H](OC(=O)CC(C)C)C1=CC(=O)c2c(O)ccc(O)c2C1=O [IVS, Isovaleryl-shikonin]	–	–	–	8660 nM	–	–	concentrations showing reduced cell viability ([4]; mouse, 24 h): > 4 µM
CC(C)=CC[C@@H](OC(=O)C=C(C)C)C1=CC(=O)c2c(O)ccc(O)c2C1=O [DMAS, β,β-Dimethyl-acryl-shikonin]	3.03 fold	3.24 fold	4.71 fold	–	15.65%	9.24%	PPAR-γ mRNA expression, fold increase [2, 11]: 8.37 fold; concentrations showing reduced cell viability ([4]; mouse, 24 h): > 4 µM; % Survival after 10 days ±SD ([10]; 15 μg/ml): 73.87 ± 1.61 %; % Survival after 10 days ±SD ([10]; 60 μg/ml): 62.22 ± 17.36 %
